Laboratory results as given in PMC3884022 (Journal of Hematology & Oncology, 2014).

Tests used:
[1] = cited from earlier work
[2] = Docetaxel PK samples (end of infusion), arm 2; assay type: in vivo, human; details: arm 2, IV docetaxel with MK-2206
Procedure: For the Q3W schedule, samples were taken in cycle 1 on days 1 to 3 as per the QOD schedule, then on days 5, 7, 15, and in cycle 2 on day 1. Blood samples were collected predose and just before the end of the infusion for carboplatin, paclitaxel, and docetaxel for archival and possible PK analysis. Another sample was taken 30 minutes into the infusion of paclitaxel. These samples were archived for possible future analysis to investigate if any unexpected toxicities may have been as a result of a PK interaction.

mean end-of-infusion concentration [2]: 3.01 µg/mL
Compound: CC(=O)O[C@@]12CO[C@@H]1C[C@H](O)[C@@]1(C)C(=O)[C@H](O)C3=C(C)[C@@H](OC(=O)[C@H](O)[C@@H](NC(=O)OC(C)(C)C)c4ccccc4)C[C@@](O)([C@@H](OC(=O)c4ccccc4)[C@H]21)C3(C)C [docetaxel]
mean end-of-infusion concentration, range of mean values in the literature [1]: 1.68 to 4.06 µg/mL
